Laboratory results published in EP4076430B1, “A METHOD OF TREATING NONALCOHOLIC STEATOHEPATITIS” (Vector Vitale IP LLC, priority 2019, dated 2021).
Values joined by “and” are separate entries in the source; they are usually repeats but may differ in a detail not shown here. Equal values may be shown once. “Also recorded” adds a separate entry of the source.

How the values were obtained:
Glucose tolerance test = type: in vivo, rats; design: Glucose, 0 min (1 h after effector administration): unit not given here; conditions: for glucose levels in the glucose tolerance test compared with the control group: 5 mg/kg in 2 ml, glucose 3 g/kg
Excerpt: 5 animals were used within the same experimental group.

insulin = assay: Serum insulin level after intraperitoneal administration (ELISA); type: in vivo; conditions: intact rats, 3750 µg of zinc per 1 kg, 7 injections every other day
Method: The current dose was calculated by zinc.
The optical density was measured at 492 nm.

[1] = Accumulation of metals in liver and kidney tissues after intraperitoneal administration; type: in vivo, rats; conditions: day 1 and day 7 after discontinuation of the substances
Method: The total kidney, liver and muscle homogenates were prepared as follows. Organ excision and homogenization were carried out at a temperature of 1-4°C. Homogenization of tissues was carried out in 50 mM Tris-HCl buffer (pH 7.4) which contained 140 mM NaCl, 1 mM EDTA. The volume of the used buffer in ml was 5 times larger than the mass of isolated organs in grams. The isolated liver was perfused with chilled saline (0.9% NaCl) via the portal vein using a syringe. The minced liver was transferred to a homogenizer with a finely ground Teflon pestle and homogenized in chilled buffer. An isolated pair of kidneys was perfused with chilled saline, released from adipose tissue and minced with scissors. The minced tissue was transferred to a homogenizer with a finely ground Teflon pestle and homogenized in chilled buffer. The total kidney and liver homogenates were centrifuged at 600 g for 15 minutes. The liquid was decanted after the mince settled down and was centrifuged again at 15,000 g for 15 minutes. These two procedures allowed us to get rid of nuclear and mitochondrial debris. Aliquots of the prepared homogenates were frozen in nitrogen (Rybalchenko V.K., Koganov M.M. Structure and function of membrane 1988. - 312 pp).

alkaline phosphatase = assay: Serum alkaline phosphatase activity in obesity model; type: in vivo; conditions: high-fat diet rats treated
Excerpt: (§1) Test kit // Pliva-Lachema Diagnostika. - 2008.
The alkaline phosphatase activity was expressed in relative units.

lipid metabolism = assay: Serum triglycerides, cholesterol and free fatty acids in obesity model; type: in vivo, rats; conditions: high-fat diet, 2.25 mg/ml zinc aspartate intragastrically in 2 ml
Excerpt: To this end, high-fat diet obesity was induced in experimental animals as described in Example 2.

[2] = Serum albumin in obesity model; type: in vivo, rats; conditions: obese animals treated
Excerpt: as §1

catalase = assay: Serum catalase activity, obesity model; type: in vivo, rats; conditions: DIO+zinc: high-fat diet, intragastrically every third day
Excerpt: Korolyuk M.A. et al., Lab. Business. - 1988. - No. 1. - P. 44-67.

liver = assay: Morpho-functional analysis of liver tissue (hepatocyte morphometry, fibrosis) in obesity model; type: in vivo, rats; conditions: Van Gieson's staining
[3] = test system: central serotonergic system (brain); assay: Indicators of the central serotonergic system in brain homogenate, obesity model; type: in vivo, rats; conditions: intragastrically every third day
Excerpt: (§2) The tissue : buffer ratio was 1:10.
(§3) The samples were reprecipitated by centrifugation. […]
(§4) The supernatant was used in further studies.

[4] = test system: pro- and anti-inflammatory cytokines; assay: Serum cytokine profile in obesity model (immunoenzyme method); type: in vivo, rats; conditions: intragastrically every third day
Method: (§5) Animal serum was prepared from whole blood. […] Samples were centrifuged for 15 min at 2500 g.

[5] = test system: products of oxidative modification of proteins; assay: Serum levels of products of oxidative modification of proteins in obesity model; type: in vivo, rats; conditions: DIO+zinc: high-fat diet, intragastrically every third day
Method: as §5
Proteins were precipitated by adding a 20% TCA solution.

[6] = test system: pro- and anti-inflammatory cytokines; assay: Cytokine profile in adipose tissue in obesity model (immunoenzyme method); type: in vivo, rats; conditions: intragastrically every third day
Method: Adipose tissue was crushed using cold scissors then transferred to a homogenizer with a loose-fitting Teflon pestle. […] Primary homogenate thus obtained was centrifuged at 600 g for 15 minutes. The supernatant was carefully collected and re-centrifuged at 15,000 g for 15 minutes. The supernatant was then frozen and stored at -80°C until the experiments.
The antigen solution, previously diluted with 0.1 M NaHCO3 buffer, pH 9.6, to a concentration of 10 µg/ml, was incubated in the plate wells for 12 hours at 4°C. Unbound material was removed by washing the wells three times with TBS buffer, first with 0.05% Tween-20, then without Tween-20. Non-specific binding sites were blocked by adding a solution of 5% skim milk or a solution of 1% bovine serum albumin to the plate wells and incubating them for 60 minutes at 37°C. After incubation, the wells were washed three times with TBS, first with 0.05% Tween-20, then without Tween-20. Primary antibodies were diluted in TBS in accordance with the manufacturer's instructions and incubated with the antigen for 60 min at 37°C. After washing with TBS working buffer, first with the addition of 0.05% Tween-20, then without Tween-20, the conjugate of secondary antibodies was added to the wells and incubated for 60 min at 37°C. As with the primary antibodies, secondary antibodies were diluted in TBS in accordance with the manufacturer's instructions. After the washing procedure, phenyldiamine dihydrochloride as substrate in 0.05M phosphate-citrate buffer was added to each well, followed by the addition of 0.3% hydrogen peroxide. After 10 minutes, the reaction time needed for development, 2.5 n H2SO4 was added.
The absorbance at a wavelength of 492 nm was measured using a µQuant microplate spectrophotometer (BioTek Instruments).

[7] = Body weight after intraperitoneal administration; type: in vivo; conditions: intact rats, 3750 µg of zinc per 1 kg, 7 injections every other day
Method: (§6) Animals are placed in cages, 4 per cage, with free access to food/water. […] Administration is performed every other day, in the amount of 7 injections per animal (intraperitoneal method of drug administration). The dose of the drug injected to each animal was calculated on the basis of the ratio: 3750 µg of zinc per 1 kg of animal body weight. After the last injection, a half of the animals are maintained on hunger (for 12 hours) with free access to water. Upon expiration of this time period, the animals are taken out of the experiment. The second half of the animals continues to have free access to food/water for a further 7 days. On day 6 after the last injection, the animals are maintained on hunger (for 12 hours) with free access to water. Upon expiration of this time period, the animals are taken out of the experiment.

[8] = Anthropometric values, amount and calorie content of food in high-fat diet induced obesity; conditions: 4.5 mg zinc aspartate intragastrically every third day; for BMI: week 10
Method: White non-pedigree rats with an initial weight of 195-205±10 g were used in the experiment. The animals were maintained in an accredited vivarium of the Academic and Research Center "Institute of Biology and Medicine" of Taras Shevchenko National University of Kyiv in accordance with the Standard rules on the arrangement, equipment and maintenance of experimental biological clinics (vivariums). The study was carried out in compliance with international standards and recommendations of the European Convention for the Protection of Vertebrate Animals used for Experimental and other Scientific Purposes (Strasbourg, 18/03/1986) and approved by the Bioethics Commission of the Academic and Research Center "Institute of Biology and Medicine".
Before the start of the experiment, animals were maintained on a standard diet of the vivarium. To induce obesity in experimental animals, they were fed high-fat diet which consisted of standard feed (60%), lard (10%), chicken eggs (10%), sucrose (9%), peanuts (5%), dry milk (5%) and sunflower oil (1%) (1%) (see X. H. Shen et al., Exp. Biol. and Med. 235: 47-51 (2010)). […] For the preparation of composition claimed standard Dulbecco's phosphate-buffered saline from (specified a manufacturer) (based on deuterium-depleted water Langway) as a diluent (liquid vehicle) was used.
Animals in all groups were weighed once a week after an overnight fast. The amount of feed to be consumed by the animals was determined daily. At the end of a 10-week period of the development of obesity models, 24 hours after the last administration of the zinc isotope solution, animals were removed from their cages and decapitated.
The body mass index (BMI) (the ratio of body weight (g) to the square of body length (cm^2)) was calculated at the end of the experiment.
Animals with an initial weight of 195-205±10 g maintained on the standard diet of the vivarium before performing obesity models were used in the experiments. To induce obesity in experimental animals, they were fed high-fat diet which consisted of standard feed (60%), lard (10%), chicken eggs (10%), sucrose (9%), peanuts (5%), dry milk (5%) and sunflower oil (1%), Shen X. et al., Experimental Biology and Medicine. - 2010. - ? […] The first 4 weeks of the experiment, all animals were maintained on a high-fat diet, after which they were randomly divided into two experimental groups: • animals in the first group (obesity) continued to eat their high-fat diet and had free access to water for the next 6 weeks of the experiment. • animals in the second group (obesity + solution of Zn-64 stable isotope in aspartate form) also followed their high-fat diet and had free access to water for the next 6 weeks of the experiment. But every third day and until the end of the experiment they were intragastrically administered a solution of Zn-64 stable isotope in aspartate form.
Animals in all groups were weighed once a week after an overnight fast. The amount of feed to be consumed by the animals was determined daily.

pancreas = assay: Morpho-functional analysis of pancreatic tissue in obesity model; type: in vivo, rats
Excerpt: After fixation, the pieces were rinsed in tap water. Then the material was dehydrated.
Dried preparations were stained with hematoxylin and eosin.

superoxide dismutase = assay: Serum superoxide dismutase activity, obesity model; type: in vivo, rats; conditions: DIO+zinc: high-fat diet, intragastrically every third day
Method: To measure superoxide dismutase activity, a method based on the ability of this enzyme to inhibit auto-oxidation of adrenaline was used.
Serum aliquots were added to microplate wells containing 0.2M bicarbonate buffer, pH 10. The reaction was initiated by adding 0.1% adrenaline solution in each well. A relevant volume of buffer was added to the "blank" wells to which no test sample was added. The optical density was measured at a wavelength of 347 nm using a µQuant microplate spectrophotometer (BioTek Instruments) at the 4th and 8th minute after adrenaline was added to the wells. The enzyme activity was expressed in relative units/min/mg.

[9] = Serum glucose concentration in obesity model; type: in vivo, rats; conditions: intragastrically every third day
Excerpt: The glucose concentration was expressed in mmol/L.

[10] = test system: peripheral serotonergic system (duodenum); assay: Indicators of the peripheral serotonergic system in duodenal homogenate, obesity model; type: in vivo, rats; conditions: intragastrically every third day
Excerpt: as §2, §3, §4

islets of Langerhans = assay: Area of islets of Langerhans after intraperitoneal administration (microscopy); type: in vivo; conditions: intact rats, 3750 µg of zinc per 1 kg, day 7 after the last administration
Method: as §6

[11] = test system: tryptophan, serotonin, monoamine oxidase; assay: Serum tryptophan, serotonin and monoamine oxidase activity, obesity model; type: in vivo, rats; conditions: intragastrically every third day
Method: as §5
The samples were reprecipitated by centrifugation.
University. Medicine. - 2000. - 1, No. 494. - P. 40-43.

## CC(=O)[O-].CC(=O)[O-].[Zn+2] [Zn acetate, Zn(CH3COO)2, reference compound]
Glucose tolerance test
  glucose levels in the glucose tolerance test compared with the control group: also dropped, though not so strongly
Glucose tolerance test; individual animals, dose: 5 mg/kg in a volume of 2 ml, fast overnight, 5 mg/kg
  Glucose, 0 min (1 h after effector administration): 4.6 and 5.2 (2×) and 4.9 and 5.1
Glucose tolerance test; individual animals, dose: 5 mg/kg in a volume of 2 ml, glucose 3 g/kg body weight in 2 ml, 5 mg/kg
  Glucose, 60 min (1 h after glucose administration): 7.2 (2×) and 6.9 and 7.3 and 6.8
insulin
  serum insulin levels at day 7 after the withdrawal: drop in the insulin levels to the value of those of intact/control animals
  serum insulin levels on the first day after the drug withdrawal: significant increase
[1]
  accumulation of zinc in the kidney and liver tissues: significantly increased

## N[C@@H](CC(=O)[O-])C(=O)[O-].[Zn+2] [^64Zne, zinc aspartate]
Alkaline phosphatase
  alkaline phosphatase activity: higher than both in the group of diet-induced obesity models and in the control group
Lipid metabolism
  levels of triglycerides, cholesterol and free fatty acids in the serum: almost at the same level as in the control group
[2]
  effect on albumin values: no effect
catalase
  Catalase activity: 0.48±0.02 µmol H2O2/min per mg protein
liver; obesity group treated
  area of collagen fiber deposits, increased by a factor versus the control group: 6
liver; rats eating a standard diet
  increase in the area of deposition of collagen fibers: 2 fold
[3]; C+zinc: standard diet
  Indoleamine dioxygenase activity: 1178 ± 267 µmol/mg protein
  Monoamine oxidase activity: 0.91 ±0.06 RU/mg protein
  Serotonin: 25.51 ± 2.71 µg/g
  Tryptophan: 87.71 ± 3.41 µg/g
  Tryptophan decarboxylase activity: 1.63 ± 0.41 RU/mg protein
  Tryptophan hydroxylase activity: 291 ± 29 RU/mg protein
[3]; DIO+zinc: high-fat diet
  Indoleamine dioxygenase activity: 2007 ± 175 µmol/mg protein
  Monoamine oxidase activity: 0.99±0.08 RU/mg protein
  Serotonin: 20.1 ± 3.21 µg/g
  Tryptophan: 31.56 ± 2.14 µg/g
  Tryptophan decarboxylase activity: 1.86 ± 0.37 RU/mg protein
  Tryptophan hydroxylase activity: 286 ± 17 RU/mg protein
[4]; C+zinc: standard diet
  IFN-γ level: 4.6±0.6 RU/mg protein
  IL-1 level: 3.5±0.7 RU/mg protein
  IL-4 level: 4.6±0.8 RU/mg protein
  IL-6 level: 4.3±0.2 RU/mg protein
  IL-10 level: 4.1±0.5 RU/mg protein
  IL-12 level: 0.3±0.04 RU/mg protein
  TGF level: 4.1±0.4 RU/mg protein
[4]; DIO+zinc: high-fat diet
  IFN-γ level: 4.1±1.2 RU/mg protein
  IL-1 level: 4.2±0.4 RU/mg protein
  IL-4 level: 5.6±1.6 RU/mg protein
  IL-6 level: 5.1±0.4 RU/mg protein
  IL-10 level: 6.8±1.1 # RU/mg protein
  IL-12 level: 2.4±0.06 RU/mg protein
  TGF level: 5.7±0.3 # RU/mg protein
[4]; DIO+zinc: high-fat diet, listed as Zn-64 stable isotope in aspartate form
  TGF level: 5.7±0.3 RU/mg protein
[5]
  Aldehyde-dinitrophenyl-hydrazones: 0.253±0.012 nmol/mg protein
  Ketone-dinitrophenyl-hydrazones: 0.200±0.024 nmol/mg protein
[6]; C+zinc: standard diet
  IFN-γ level: 5.0±0.8 RU/mg protein
  IL-1 level: 4.9±1.7 RU/mg protein
  IL-4 level: 5.0±0.4 RU/mg protein
  IL-6 level: 5.4±0.3 RU/mg protein
  IL-10 level: 4.9±0.2 RU/mg protein
  IL-12 level: 1.0±0.03 RU/mg protein
  TGF level: 5.1±0.6 RU/mg protein
[6]; DIO+zinc: high-fat diet
  IFN-γ level: 4.9±0.8 RU/mg protein
  IL-1 level: 5.8±1.8 RU/mg protein
  IL-4 level: 5.1±1.2 RU/mg protein
  IL-6 level: 6.1±0.7 RU/mg protein
  IL-10 level: 5.8±0.8 RU/mg protein
  IL-12 level: 1.99±0.01 RU/mg protein
  TGF level: 5.2±0.9 RU/mg protein
Glucose tolerance test; listed as zinc isotope
  glucose levels in the glucose tolerance test compared with the control group: drop in glucose concentration; also recorded: decrease in glucose levels
Glucose tolerance test; listed as zinc isotope ^64Zn
  glucose levels in the glucose tolerance test compared with the control group: significant decrease in glucose levels
[7]
  body weight of rats: significant increase
[8]; C+zinc: standard diet
  Amount of food consumed: 32 g/day
  Calorie content of food: 490 kJ/day
  Weight gain as of the end of the experiment: 59%
  BMI: 0.59 g/cm^2
[8]; DIO+zinc: high-fat diet
  Amount of food consumed: 29 g/day
  Calorie content of food: 823 kJ/day
  Weight gain as of the end of the experiment: 62%
  BMI: 0.65 g/cm^2
pancreas; rats fed a standard diet, hematoxylin & eosin
  morphology of exocrine cells of the pancreas: did not change
pancreas; rats having obesity
  cross-sectional surface area of the islets of Langerhans, increase compared with the obesity group: 43%
  cross-sectional surface area of the islets of Langerhans, lower than the control value: 29%
pancreas; rats that ate a standard diet
  cross-sectional surface area of the islets of Langerhans, decrease compared with the control group: 39%
Superoxide dismutase
  Superoxide dismutase activity: 4.5±0.43 # RU/ min per mg protein
[9]; C+zinc: standard diet
  Glucose levels: 4.7 ± 0.2 mmol/L
[9]; DIO+zinc: high-fat diet
  Glucose levels: 4.9 ± 0.2 mmol/L
[10]; C+zinc: standard diet
  Indoleamine dioxygenase activity: 2150 ± 231 µmol/mg protein
  Monoamine oxidase activity: 3.82 ±0.07 RU/mg protein
  Serotonin: 7.41 ± 0.54 µg/g
  Tryptophan: 154.7 ± 13.6 µg/g
  Tryptophan decarboxylase activity: 0.79 ± 0.22 RU/mg protein
  Tryptophan hydroxylase activity: 375 ± 61 RU/mg protein
[10]; DIO+zinc: high-fat diet
  Indoleamine dioxygenase activity: 1768 ± 274 µmol/mg protein
  Monoamine oxidase activity: 1.72 ±0.03 RU/mg protein
  Serotonin: 9.73 ± 0.82 µg/g
  Tryptophan: 89.4 ± 8.99 µg/g
  Tryptophan decarboxylase activity: 0.78 ± 0.19 RU/mg protein
  Tryptophan hydroxylase activity: 253 ± 58 RU/mg protein
Islets of Langerhans
  area of islets of Langerhans compared to the control group and the zinc acetate group: significant increase
insulin
  serum insulin levels at day 7 after the withdrawal: increased
  serum insulin levels on the first day after the drug withdrawal: slightly higher than in the group of intact animals
insulin; listed as zinc isotope
  serum insulin levels at day 7 after the withdrawal: significant increase
[11]; C+zinc: standard diet
  Monoamine oxylase activity: 2.52±0.03 RU/mg protein
  Serotonin: 10.16 ± 0.62 µg/g
  Tryptophan: 56.12 ± 7.58 µg/g
[11]; DIO+zinc: high-fat diet
  Monoamine oxylase activity: 3.11±0.08 RU/mg protein
  Serotonin: 6.33 ± 0.51 µg/g
  Tryptophan: 66.65 ± 9.62 µg/g
[1]
  accumulation of zinc in the kidney and liver tissues: significantly increased
